Each structure is given as a SMILES string. Like-named read-outs stand apart in the source and are kept apart here. Some results are limits rather than exact numbers.

For one test, the target named is biotinylated GST (Schistosoma japonicum, UniProt P08515). As to the kind of experiment: Control assay (AlphaScreen Shortcut). Format: biochemical. As to the method: This assay was developed to identify compounds that interfere with the assay format using AlphaLISA Glutathione Acceptor and AlphaScreen Streptavidin Donor beads. The assay was performed as described above using biotinylated GST as bridging reagent instead of KRAS^G12D and CRAF mix.

A further test deals with T1, KRAS^G12D(GTP)::CRAF (Homo sapiens, UniProt P01116, G12D).
T1 construct: KRAS^G12D 1–169, N-terminal 6His-tag, C-terminal avi-tag (Xtal BioStructures, Inc.); 6His (N); purchased Xtal BioStructures, Inc. (KRAS); Viva Biotech Ltd. (CRAF)
As to the kind of experiment: KRAS^G12D(GTP)::CRAF AlphaScreen. Format: biochemical. As for the experimental part: The proteins have been used at these given final assay concentrations:
Test compounds dissolved in DMSO were dispensed onto assay plates (Proxiplate 384 PLUS, white, PerkinElmer; 6008289) using an Access Labcyte Workstation with the Labcyte Echo 555. For the chosen highest assay concentration of 100 μM, 150 nl of compound solution were transferred from a 10 mM DMSO compound stock solution. A series of 11 5-fold dilutions per compound was transferred to the assay plate, and compound dilutions were tested in duplicates. DMSO was added as backfill to a total volume of 150 nl. The assay was run on a fully automated robotic system in a darkened room below 100 Lux. […] After 60 min incubation time 5 μL of AlphaScreen bead mix in assay buffer were added into columns 1–23. Bead mix consisted of AlphaLISA Glutathione Acceptor Beads (PerkinElmer, cat. no. AL109) and Alpha-Screen Streptavidin Donor Beads (perkinElmer cat. no. 6760002) in assay buffer at a final assay concentration of 10 μg/mL each. Plates were kept at room temperature in a darkened incubator. After an additional 60 min incubation time the signal was measured on a PerkinElmer Envision HTS Multilabel Reader using the AlphaScreen specs from PerkinElmer.
IC50 values were calculated and analyzed with Boehringer Ingelheim’s MEGALAB IC50 application using a 4 parametric logistic model.
(In Alpha technology, singlet oxygen from a donor bead excites a nearby acceptor bead.)

The next test concerns the target KRAS^G12D(GCP) (Homo sapiens, UniProt P01116, G12D). Description: KRAS STD-NMR. It counts as binding. The following applies: Batch 1; 10 μM KRAS^G12D(GCP), 1000 μM ligand; approximated visually. As for the experimental part:
Experiments were recorded with a saturation time Tsat of 2 s and a total recycle delay of 3.6 s with the standard Bruker pulse program stddiffgp19.2. The shaped pulse train was made of G4 pulses with a length of 50 ms at a power of 31 μW. Here on resonance saturation was applied at 100 Hz and off resonance at 20000 Hz. No spin locking was applied to reduce the protein background. Here, 256 scans were applied with a time domain of 32 000 and the watergate delay was set to 90 μs to reduce remaining HDO signal intensity. 10 μM KRAS^G12D(GCP) and 1000 μM ligand was added for the STD NMR experiments and the percent enhancements approximated visually since no additional analysis was performed.

In another test the target is KRAS “on” (Homo sapiens, UniProt P01116). As to the kind of experiment: NMR-based fragment screen, KD (NMR). It counts as binding.
[1] abbreviates: Control assay IC50, Batch 2 (resynthesized).
[2] abbreviates: Batch 1, read-out: KRAS^G12D(GTP)::CRAF AlphaScreen IC50.
The mark [3] stands for this setting: Batch 2 (resynthesized), read-out: KRAS^G12D(GTP)::CRAF AlphaScreen IC50.
The mark [4] stands for this setting: confirmation screen, read-out: IC50, KRAS^G12D(GTP)::CRAF high-throughput AlphaScreen.

Chain of biotinylated GST (P08515 whole entry): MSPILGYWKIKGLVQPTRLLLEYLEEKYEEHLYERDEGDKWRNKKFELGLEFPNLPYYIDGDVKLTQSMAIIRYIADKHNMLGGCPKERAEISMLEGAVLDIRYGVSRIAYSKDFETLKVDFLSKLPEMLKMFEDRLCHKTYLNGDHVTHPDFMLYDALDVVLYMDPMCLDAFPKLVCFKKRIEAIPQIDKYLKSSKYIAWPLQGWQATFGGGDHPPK

For orientation: IC50 means the midpoint of a concentration-inhibition curve. On to `O=C1NCCc2c1[nH]c1c(-c3ccncc3)cccc21` [Cmpd 4, 8-(Pyridin-4-yl)-2H,3H,4H,9H-pyrido[3,4-b]indol-1-one], for which the IC50 against biotinylated GST (Control assay IC50, Batch 1) was over 100 µM; against biotinylated GST (setting [1]), over 100 µM; at KRAS^G12D(GTP)::CRAF (setting [2]), 8.6 ± 0.8 µM; on KRAS^G12D(GTP)::CRAF (setting [3]) it was 77.3 ± 55.7 µM; on KRAS^G12D(GTP)::CRAF (setting [4]), 6.3 µM. Also, the “KRAS STD-NMR percent enhancement” value at KRAS^G12D(GCP) is on record as 7%.
As usually defined, the Kd is the free concentration of one partner at which half of the binding sites on the other are occupied at equilibrium, for simple one-to-one binding. A low value points to higher affinity. As for `c1ccc2c(Cc3nc4ccncc4[nH]3)c[nH]c2c1` [FBS Hit 1], the IC50 was over 100 µM at biotinylated GST (Control assay IC50, Batch 1) and over 100 µM at KRAS^G12D(GTP)::CRAF (setting [2]). Moreover, the Kd at KRAS “on” was determined as 1200 µM.
In the case of `O=C1NCCc2c1[nH]c1c(-c3ccoc3)cccc21` [Cmpd 3, 8-(Furan-3-yl)-2H,3H,4H,9H-pyrido[3,4-b]indol-1-one], the 50% inhibitory concentration (IC50) against biotinylated GST (Control assay IC50, Batch 1) was 34 ± 2.6 µM; at biotinylated GST (setting [1]), 69.7 ± 6.7 µM; on biotinylated GST (Control assay IC50, Batch 3 (NP repurified)), over 100 µM; on KRAS^G12D(GTP)::CRAF (setting [2]) it was 11 ± 1.5 µM; on KRAS^G12D(GTP)::CRAF (setting [3]), 51.5 ± 3.5 µM; on KRAS^G12D(GTP)::CRAF (Batch 3 (NP repurified), read-out: KRAS^G12D(GTP)::CRAF AlphaScreen IC50), 78.3 ± 2.9 µM. Besides, the IC50 at KRAS^G12D(GTP)::CRAF (setting [4]) was 8.1 µM. In addition, the “KRAS STD-NMR percent enhancement” value at KRAS^G12D(GCP) stood at 11%.
Regarding `Clc1ccc2[nH]c3c(c2c1)CNCC3` [FBS Hit 2], the IC50 against biotinylated GST (Control assay IC50, Batch 1) was over 100 µM; at KRAS^G12D(GTP)::CRAF (setting [2]), over 100 µM. Besides, the Kd on KRAS “on” was over 2000 µM.

Source of the values: paper PMC11285368, “Chasing Red Herrings: Palladium Metal Salt Impurities Feigning KRAS Activity in Biochemical Assays” (Journal of Medicinal Chemistry, 2024).
